From patent US20250376484A1, “PRMT5 INHIBITORS AND USES THEREOF” (Gilead Sciences, Inc., priority 2024, published 2025)

Legend:
[1] = tested on: HCT116 MTAP-deleted cell lines; assay: Cell viability assay (CellTitre-Glo), HCT116 MTAP-deleted; assay type: cell-based; settings: for CC50: Homo sapiens, HCT-116, 168 h, HCT116 MTAP-deleted cells, 7 days of treatment, CTG luminescence, read-out: MTAP^del HCT116 CC50; for Selectivity: WT HCT116 CC50 versus MTAP^del HCT116 CC50
Experimental: (§1) Control compounds were analyzed in parallel each time for quality control.
(§2) In Brief, on Day-1, a serial dilution of stock compounds in DMSO was performed using BioMek liquid handlers and dispensed using Echo acoustic dispenser into 384 well plates. Both tool compounds and sample compounds were spotted in the same plate for a dose response of PRMT5 inhibitors. Compound plates were stored as frozen until the cells were ready for seeding.
(§3) On Day 0, 100 HCT WT or HCT116 MTAP-deleted cells were seeded in compound-containing 384 well plates (50 μl per well) in RPMI 1640 media supplemented with 10% heat inactivated fetal bovine serum, Glutamax and penicillin streptomycin using EL460 liquid dispenser 5 μl cassette (BioTek, part no. 7170011). After equilibrating the plate in room temperature, the cells were incubated for 7 days inside the sealed incubator set at 37° C. with […] and 5% CO2.
(§4) On Day 7, the viability of cells was measured using a CTG assay kit (CellTitre-Glo; Promega cat no. G7573). Shortly, 40 μl per well of luminescent cell viability assay reagent were dispensed using EL460 liquid dispenser 5 μl cassette. CTG luminescence signal was measured using an EnVision plate reader (PerkinElmer) in accordance with manufacturer's instruction. The CC50 values for each compound after 7 days of treatment were calculated using 4 parameter non-linear logistical curve fit.

[2] = Cell viability assay (CellTitre-Glo), HCT116 WT; assay type: cell-based; settings: human; HCT116 WT cells, 7 days of treatment, CTG luminescence
Experimental: as §1, §2, §3, §4

[3] = MDR1/BCRP assay: permeability in cPgp-KO-MDCK-WT cells; assay type: in vitro ADME; settings: dog, test compounds at 1 μM, 2-hour time point, pH 7.4
Experimental: (§5) cPgp-KO-MDCK-WT, cPgp-KO-MDR1-KI, and cPgp-KO—BCRP—KI cells (all from Sigma) were cultured in Dulbecco's Modification of Eagle's Medium (DMEM) with 4.5 g/L glucose, sodium pyruvate, and GlutaMAX (Gibco) supplemented with 1% Pen/Strep and 10% fetal bovine serum. The cells were maintained in an incubator at 37° C., 90% humidity, and 5% CO2 until reaching confluence over 5 days in 96-well transwell plates. Experiments were conducted using an HBSS donor buffer (Invitrogen) containing 10 mM HEPES and 15 mM glucose, adjusted to pH 7.4. The receiver well contained HBSS buffer supplemented with 1% BSA, 10 mM HEPES, and 15 mM glucose, and the pH was adjusted to 7.4. TEER values were measured to assess membrane integrity after an initial equilibration with BSA-free transport buffer for 15 minutes. The experiment was started by adding dosing solutions containing test compounds at 1 μM. Cells were dosed on the apical (A) side or basolateral (B) side at 100 μl and 200 μl, respectively, to determine forward (A to B) and reverse (B to A) permeability. At the 2-hour time point, 50 μl samples were collected from the receiver compartment. Each compound was tested in 2 separate replicate wells for each condition. All samples were immediately collected into plates, and 50 μL of acetonitrile was added. Subsequently, 350 μl of 30:70 methanol: acetonitrile containing internal standard was added to precipitate proteins and stabilize the test compounds. To test for non-specific binding and compound instability, the total amount of the drug was quantified at the end of the experiment and compared to the material present in the original dosing solution as a percentage of the recovery. All samples were analyzed by LC-MS/MS using electrospray ionization.
(§6) The apparent permeability, Papp, and % recovery were calculated as follows: […]

[4] = biological target: T1, BCRP (Homo sapiens, UniProt Q9UNQ0); assay: MDR1/BCRP assay: efflux ratio in cPgp-KO-BCRP-KI cells; assay type: in vitro ADME; settings: dog, efflux ratio Papp (B-to-A)/Papp (A-to-B), 2-hour time point, read-out: cPgp-KO-BCRP-KI (ER)
T1 construct: host or cells: MDCK cells with canine Pgp knocked out and BCRP knocked in (cPgp-KO-BCRP-KI)
T1 sequence (Q9UNQ0 1-655): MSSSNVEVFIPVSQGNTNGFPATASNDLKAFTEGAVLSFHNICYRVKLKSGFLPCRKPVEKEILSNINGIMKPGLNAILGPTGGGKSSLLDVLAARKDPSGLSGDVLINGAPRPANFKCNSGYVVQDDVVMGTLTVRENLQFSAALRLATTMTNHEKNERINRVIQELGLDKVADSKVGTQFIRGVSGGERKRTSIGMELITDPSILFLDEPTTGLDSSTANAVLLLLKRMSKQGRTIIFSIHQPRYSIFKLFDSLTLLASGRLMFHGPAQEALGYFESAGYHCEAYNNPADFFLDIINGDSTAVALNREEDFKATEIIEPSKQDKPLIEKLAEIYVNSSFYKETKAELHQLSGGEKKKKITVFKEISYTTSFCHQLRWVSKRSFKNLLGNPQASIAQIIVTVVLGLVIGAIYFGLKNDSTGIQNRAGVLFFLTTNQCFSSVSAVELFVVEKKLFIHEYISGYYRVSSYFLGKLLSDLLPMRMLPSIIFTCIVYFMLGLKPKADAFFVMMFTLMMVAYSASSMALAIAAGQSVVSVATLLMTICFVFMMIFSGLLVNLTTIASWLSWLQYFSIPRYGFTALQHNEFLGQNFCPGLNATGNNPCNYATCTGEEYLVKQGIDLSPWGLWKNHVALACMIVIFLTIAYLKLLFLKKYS
Experimental: as §5, §6

[5] = biological target: T2, MDR1 (Homo sapiens, UniProt P08183); assay: MDR1/BCRP assay: efflux ratio in cPgp-KO-MDR1-KI cells; assay type: in vitro ADME; settings: dog, MDCK-MDR1, efflux ratio Papp (B-to-A)/Papp (A-to-B), 2-hour time point, read-out: cPgp-KO-MDR1-KI (ER)
T2 construct: host or cells: MDCK cells with canine Pgp knocked out and MDR1 knocked in (cPgp-KO-MDR1-KI)
T2 sequence (P08183 whole entry): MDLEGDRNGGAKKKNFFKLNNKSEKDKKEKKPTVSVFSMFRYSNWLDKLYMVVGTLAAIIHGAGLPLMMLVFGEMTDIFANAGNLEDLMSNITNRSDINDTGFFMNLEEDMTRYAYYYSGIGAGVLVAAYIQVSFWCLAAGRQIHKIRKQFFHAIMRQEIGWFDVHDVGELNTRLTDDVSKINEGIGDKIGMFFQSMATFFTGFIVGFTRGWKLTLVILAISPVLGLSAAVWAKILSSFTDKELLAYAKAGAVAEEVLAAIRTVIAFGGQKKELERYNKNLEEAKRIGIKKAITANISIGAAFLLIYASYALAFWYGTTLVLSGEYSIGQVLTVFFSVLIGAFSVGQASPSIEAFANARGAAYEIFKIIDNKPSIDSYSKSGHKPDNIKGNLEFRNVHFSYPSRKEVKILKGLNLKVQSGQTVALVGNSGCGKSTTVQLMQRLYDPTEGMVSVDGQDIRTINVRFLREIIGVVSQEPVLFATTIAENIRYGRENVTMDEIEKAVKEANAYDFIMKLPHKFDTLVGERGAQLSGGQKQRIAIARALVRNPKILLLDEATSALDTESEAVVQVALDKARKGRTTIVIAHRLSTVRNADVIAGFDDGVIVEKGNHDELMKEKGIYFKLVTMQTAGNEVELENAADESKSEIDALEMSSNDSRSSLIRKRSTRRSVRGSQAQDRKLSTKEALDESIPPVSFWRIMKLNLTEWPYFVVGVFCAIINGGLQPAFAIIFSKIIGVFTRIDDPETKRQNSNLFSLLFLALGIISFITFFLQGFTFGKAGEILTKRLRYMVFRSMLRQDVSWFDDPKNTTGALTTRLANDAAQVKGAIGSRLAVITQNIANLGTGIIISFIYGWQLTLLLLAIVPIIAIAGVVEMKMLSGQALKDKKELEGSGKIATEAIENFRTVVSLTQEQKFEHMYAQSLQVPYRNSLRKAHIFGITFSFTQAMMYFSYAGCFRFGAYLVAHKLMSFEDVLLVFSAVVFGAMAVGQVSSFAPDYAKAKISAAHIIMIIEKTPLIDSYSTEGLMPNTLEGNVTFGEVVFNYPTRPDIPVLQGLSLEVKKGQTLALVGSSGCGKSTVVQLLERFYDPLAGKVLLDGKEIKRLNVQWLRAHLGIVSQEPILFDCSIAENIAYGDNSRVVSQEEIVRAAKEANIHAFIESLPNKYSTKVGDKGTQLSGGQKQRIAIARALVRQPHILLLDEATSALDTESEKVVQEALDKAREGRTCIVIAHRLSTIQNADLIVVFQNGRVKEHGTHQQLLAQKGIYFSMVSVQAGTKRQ
Experimental: as §5, §6

| Structure (SMILES) | CC50 [1] [nM] | Selectivity [1] | CC50 at 7 days [2] [nM] | Papp A→B at 2 h, 1 µM [3] [×10⁻⁶ cm/s] | efflux ratio at 2 h, 1 μM [4] | efflux ratio at 2 h, 1 μM [5] |
| --- | --- | --- | --- | --- | --- | --- |
| C[C@@H]1C[C@@H]2Oc3nc(C(F)(F)F)ccc3[C@@H]2N(C(=O)C(=O)Nc2cnc(N)c3c2cnn3C)C1 [Example Ca-8, N-(7-amino-1-methyl-1H-pyrazolo[3,4-c]pyridin-4-yl)-2-((3R,4aS,9bS)-3-methyl-7-(trifluoromethyl)-3,4,4a,9b-tetrahydrofuro[2,3-b:4,5-b′]dipyridin-1(2H)-yl)-2-oxoacetamide] | 13 | 93 | 1200 | 19.7 | 9 | 2.5 |
| C[C@@H]1CN(C(=O)C(=O)Nc2cnc(N)c3c2cnn3C)[C@H]2c3ccc(C(F)(F)F)cc3C[C@H]2O1 [Example Ca-10, N-(7-amino-1-methyl-1H-pyrazolo[3,4-c]pyridin-4-yl)-2-((2R,4aS,9aR)-2-methyl-7-(trifluoromethyl)-2,3,9,9a-tetrahydroindeno[2,1-b][1,4]oxazin-4(4aH)-yl)-2-oxoacetamide] | 28 | 96 | 2720 | 17.7 | 1.1 | 1 |
| Cn1ncc2c(NC(=O)C(=O)N3CC[C@H]4C[C@@H]3c3c(F)cc(C(F)(F)F)cc3O4)cnc(N)c21 [Example Ca-11, N-(7-amino-1-methyl-1H-pyrazolo[3,4-c]pyridin-4-yl)-2-((2S,6R)-7-fluoro-9-(trifluoromethyl)-3,4-dihydro-2H-2,6-methanobenzo[b][1,5]oxazocin-5(6H)-yl)-2-oxoacetamide] | 18 | 115 | 2070 | 10.7 | 1.3 | 1.4 |
